From US9776995B2, “Bicyclic sulfonamide compounds as sodium channel inhibitors” (AMGEN INC., priority 2013, dated 2017) come the findings set out here.

Sequence of Nav 1.7 (Q15858 whole entry): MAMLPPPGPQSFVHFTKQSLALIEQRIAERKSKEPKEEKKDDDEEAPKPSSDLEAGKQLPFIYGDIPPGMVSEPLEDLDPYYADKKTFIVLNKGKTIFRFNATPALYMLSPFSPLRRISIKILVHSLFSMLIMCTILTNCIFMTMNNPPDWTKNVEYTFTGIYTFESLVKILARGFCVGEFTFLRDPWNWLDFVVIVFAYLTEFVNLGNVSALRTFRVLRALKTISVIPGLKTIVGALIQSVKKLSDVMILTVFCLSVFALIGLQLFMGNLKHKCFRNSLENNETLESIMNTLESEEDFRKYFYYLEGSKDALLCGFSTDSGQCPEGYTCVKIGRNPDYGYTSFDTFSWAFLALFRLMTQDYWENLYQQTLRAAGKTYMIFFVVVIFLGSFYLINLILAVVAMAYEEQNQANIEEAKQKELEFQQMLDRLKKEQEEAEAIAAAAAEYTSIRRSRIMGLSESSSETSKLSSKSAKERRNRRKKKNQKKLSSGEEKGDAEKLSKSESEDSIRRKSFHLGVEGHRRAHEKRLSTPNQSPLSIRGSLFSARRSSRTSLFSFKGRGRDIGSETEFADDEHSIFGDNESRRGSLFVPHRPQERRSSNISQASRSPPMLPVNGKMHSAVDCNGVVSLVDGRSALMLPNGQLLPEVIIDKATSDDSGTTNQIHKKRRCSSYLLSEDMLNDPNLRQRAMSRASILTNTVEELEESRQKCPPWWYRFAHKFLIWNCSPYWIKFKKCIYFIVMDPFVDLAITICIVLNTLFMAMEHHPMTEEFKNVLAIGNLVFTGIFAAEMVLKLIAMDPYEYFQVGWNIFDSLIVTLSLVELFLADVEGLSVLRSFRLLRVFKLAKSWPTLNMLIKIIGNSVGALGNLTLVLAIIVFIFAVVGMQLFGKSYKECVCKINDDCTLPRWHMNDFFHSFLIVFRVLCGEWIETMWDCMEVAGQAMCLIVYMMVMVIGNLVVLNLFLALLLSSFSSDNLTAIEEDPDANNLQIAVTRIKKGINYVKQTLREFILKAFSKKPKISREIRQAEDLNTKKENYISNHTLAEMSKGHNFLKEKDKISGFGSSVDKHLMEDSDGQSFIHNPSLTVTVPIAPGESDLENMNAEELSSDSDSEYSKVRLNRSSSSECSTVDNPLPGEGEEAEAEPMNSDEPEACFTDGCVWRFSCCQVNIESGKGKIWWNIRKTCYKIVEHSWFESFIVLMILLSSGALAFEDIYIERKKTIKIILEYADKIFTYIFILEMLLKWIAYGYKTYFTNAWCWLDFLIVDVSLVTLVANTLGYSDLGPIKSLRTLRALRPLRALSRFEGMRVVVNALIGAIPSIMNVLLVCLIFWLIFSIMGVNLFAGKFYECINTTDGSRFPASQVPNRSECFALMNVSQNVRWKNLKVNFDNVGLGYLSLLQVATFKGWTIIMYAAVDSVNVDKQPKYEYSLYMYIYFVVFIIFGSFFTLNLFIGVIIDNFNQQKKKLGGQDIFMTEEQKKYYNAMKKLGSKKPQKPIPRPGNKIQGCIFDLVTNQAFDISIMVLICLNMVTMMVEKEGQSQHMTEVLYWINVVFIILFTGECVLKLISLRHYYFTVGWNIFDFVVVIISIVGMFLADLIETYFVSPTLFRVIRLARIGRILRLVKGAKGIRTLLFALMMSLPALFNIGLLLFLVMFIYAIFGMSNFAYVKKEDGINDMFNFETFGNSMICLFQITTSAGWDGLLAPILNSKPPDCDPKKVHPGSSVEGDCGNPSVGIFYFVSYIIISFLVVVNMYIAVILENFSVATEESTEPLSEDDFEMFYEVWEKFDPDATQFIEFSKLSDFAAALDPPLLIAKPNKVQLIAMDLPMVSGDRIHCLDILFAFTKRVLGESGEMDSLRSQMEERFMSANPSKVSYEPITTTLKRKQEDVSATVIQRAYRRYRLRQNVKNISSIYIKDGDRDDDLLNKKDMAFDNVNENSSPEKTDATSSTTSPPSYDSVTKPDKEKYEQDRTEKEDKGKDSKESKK

The first assay has as its target Nav 1.7 (Homo sapiens (Human), UniProt Q15858). Briefly: Nav 1.7 in vitro PX assay (PatchXpress whole cell voltage clamp).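 Also: holding potential set for 20 to 50% inactivation, sodium current evoked by a 20 ms step to −10 mV, peak current inhibition read after compound exposure, 3–5 cells per concentration.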
Settings: not given
The format is cell-based.
Turning to `COc1cc(C(F)(F)F)ccc1C1c2ccc(S(=O)(=O)Nc3ncns3)cc2CCN1C(C)=O` (centres unmarked) [Example 51, 2-ACETYL-1-(2-METHOXY-4-(TRIFLUOROMETHYL)PHENYL)-N-(1,2,4-THIADIAZOL-5-YL)-1,2,3,4-TETRAHYDROISOQUINOLINE-6-SULFONAMIDE], half-maximal inhibition (IC50) required 225 nM.
The same measure, in the same setting: to `COc1cc(C(F)(F)F)c(Cl)cc1-c1ncnc2cc(S(=O)(=O)Nc3ccon3)ccc12` [Example 59, 4-(5-CHLORO-2-METHOXY-4-(TRIFLUOROMETHYL)PHENYL)-N-(ISOXAZOL-3-YL)QUINAZOLINE-7-SULFONAMIDE] belongs 182 nM.

The assay is the same for the next values; noted with them: HEK 293 cells stably transfected with human Nav1.7; PatchXpress; partially inactivated state.
`CCc1cnc2cc(S(=O)(=O)Nc3ccon3)ccc2c1-c1cc(Cl)c(-c2cccc(F)c2)cc1OC` (atropisomer, axis not shown; (P)) [Example 333, (P)-4-(2-chloro-3′-fluoro-5-methoxy-[1,1′-biphenyl]-4-yl)-3-ethyl-N-(isoxazol-3-yl)quinoline-7-sulfonamide]: the half-maximal inhibitory concentration (IC50) (in general, the concentration at which inhibition is half-maximal) stood at 591 nM.
`COc1cc(-c2cccc(F)c2)c(Cl)cc1-c1c(C#N)cnc2cc(S(=O)(=O)Nc3ccon3)ccc12` (atropisomer, axis not shown; (P)) [Example 335, (P)-4-(2-chloro-3′-fluoro-5-methoxy-[1,1′-biphenyl]-4-yl)-3-cyano-N-(isoxazol-3-yl)quinoline-7-sulfonamide] had an IC50 of 112 nM.
Turning to `COc1cc(-c2cccc(F)c2)c(Cl)cc1-c1c(O)cnc2cc(S(=O)(=O)Nc3ccon3)ccc12` (atropisomer, axis not shown; (P)) [Example 338, (P)-4-(2-chloro-3′-fluoro-5-methoxy-[1,1′-biphenyl]-4-yl)-3-hydroxy-N-(isoxazol-3-yl)quinoline-7-sulfonamide], the half-maximal inhibitory concentration (IC50) is 41 nM.
Still for that read-out and setting: to `COc1cc(-c2cccc(F)c2)c(Cl)cc1-c1c(OC)cnc2cc(S(=O)(=O)Nc3ccon3)ccc12` (atropisomer, axis not shown; (P)) [Example 340, (P)-4-(2-chloro-3′-fluoro-5-methoxy-[1,1′-biphenyl]-4-yl)-N-(isoxazol-3-yl)-3-methoxyquinoline-7-sulfonamide] belongs 84 nM; to `COc1cc(-c2cccc(F)c2)c(Cl)cc1-c1c(C)nnc2cc(S(=O)(=O)Nc3ccon3)ccc12` (atropisomer, axis not shown; (P)) [Example 442, (P)-4-(2-chloro-3′-fluoro-5-methoxy-[1,1′-biphenyl]-4-yl)-N-(isoxazol-3-yl)-3-methylcinnoline-7-sulfonamide], 251 nM; to `CCc1nnc2cc(S(=O)(=O)Nc3ccon3)ccc2c1-c1cc(Cl)c(-c2cccc(F)c2)cc1OC` (atropisomer, axis not shown; (P)) [Example 444, (P)-4-(2-chloro-3′-fluoro-5-methoxy-[1,1′-biphenyl]-4-yl)-3-ethyl-N-(isoxazol-3-yl)cinnoline-7-sulfonamide], 1160 nM.
On the same count and under the same terms, to `COc1cc(-c2cccc(C(F)(F)F)c2)c(F)cc1-c1c2ccc(S(=O)(=O)Nc3ccon3)cc2cc(=O)n1C` (atropisomer, axis not shown; (P)) [Example 551, (P)-1-(2-fluoro-5-methoxy-3′-(trifluoromethyl)-4-biphenylyl)-N-3-isoxazolyl-2-methyl-3-oxo-2,3-dihydro-6-isoquinolinesulfonamide] belongs 28 nM.

Still in this assay, the particulars now being: PatchXpress (PX).
`COc1cc(-c2cccc(F)c2)ccc1[C@@H]1c2ccc(S(=O)(=O)Nc3ccon3)cc2CCN1C(C)=O` [Example 53-A, (S)-2-ACETYL-1-(3′-FLUORO-3-METHOXY-[1,1′-BIPHENYL]-4-YL)-N-(ISOXAZOL-3-YL)-1,2,3,4-TETRAHYDROISOQUINOLINE-6-SULFONAMIDE] yielded an IC50 of 1090 nM. This counts as single-digit micromolar.
On the same count and under the same terms, to `COc1cc(-c2cccc(F)c2)c(Cl)cc1-c1nccc2cc(S(=O)(=O)Nc3cscn3)ccc12` [Example 54, 1-(2-CHLORO-3′-FLUORO-5-METHOXY-[1,1′-BIPHENYL]-4-YL)-N-(THIAZOL-4-YL)ISOQUINOLINE-6-SULFONAMIDE] belongs 493 nM.
The same measure, in the same setting: to `COc1cc(-c2cccc(F)c2)c(Cl)cc1-c1nnc(OC)c2cc(S(=O)(=O)Nc3ccon3)ccc12` [Example 55, 1-(2-CHLORO-3′-FLUORO-5-METHOXY-[1,1′-BIPHENYL]-4-YL)-N-(ISOXAZOL-3-YL)-4-METHOXYPHTHALAZINE-6-SULFONAMIDE] belongs 32.6 nM.
Turning to `COc1cn(-c2cc(F)cc(F)c2)c(=O)cc1-c1nccc2cc(S(=O)(=O)Nc3ccon3)ccc12` [Example 56, 1-(1-(3,5-DIFLUOROPHENYL)-5-METHOXY-2-OXO-1,2-DIHYDROPYRIDIN-4-YL)-N-(ISOXAZOL-3-YL)ISOQUINOLINE-6-SULFONAMIDE], the IC50 came to 11800 nM.
The same measure, in the same setting: to `COc1cc(C(F)(F)F)c(C)cc1-c1nccc2cc(S(=O)(=O)Nc3ccon3)ccc12` [Example 60, N-(ISOXAZOL-3-YL)-1-(2-METHOXY-5-METHYL-4-(TRIFLUOROMETHYL)PHENYL)ISOQUINOLINE-6-SULFONAMIDE] belongs 189 nM; to `COc1cc(-c2cc(F)cc(F)c2)c(C)cc1-c1ncnc2cc(S(=O)(=O)Nc3ccon3)ccc12` [Example 61, 4-(3′,5′-DIFLUORO-5-METHOXY-2-METHYL-[1,1′-BIPHENYL]-4-YL)-N-(ISOXAZOL-3-YL)QUINAZOLINE-7-SULFONAMIDE], 50.4 nM; to `COc1cc(-c2ccc(F)c(F)c2)c(C)cc1-c1nccc2cc(S(=O)(=O)Nc3ccon3)ccc12` [Example 62, 1-(3′,4′-DIFLUORO-5-METHOXY-2-METHYL-[1,1′-BIPHENYL]-4-YL)-N-(ISOXAZOL-3-YL)ISOQUINOLINE-6-SULFONAMIDE], 37.6 nM.
On the same count and under the same terms, to `COc1cc(-c2ccc(Cl)c(C)c2)c(Cl)cc1-c1nncc2cc(S(=O)(=O)Nc3ccon3)ccc12` [Example 245, 1-(2,4′-dichloro-5-methoxy-3′-methyl-4-biphenylyl)-N-3-isoxazolyl-6-phthalazinesulfonamide] belongs 15.4 nM; to `COc1cc(-c2ccc(C)c(Cl)c2)c(Cl)cc1-c1nncc2cc(S(=O)(=O)Nc3ccon3)ccc12` [Example 246, 1-(2,3′-dichloro-5-methoxy-4′-methyl-4-biphenylyl)-N-3-isoxazolyl-6-phthalazinesulfonamide], 17.2 nM.
Still for that read-out and setting: the result for `COc1cc(Cl)c(C)cc1-c1ncnc2cc(S(=O)(=O)Nc3ccon3)ccc12` [Example 247, 4-(4-chloro-2-methoxy-5-methylphenyl)-N-3-isoxazolyl-7-quinazolinesulfonamide] reads 243 nM; that for `COc1cc(Cl)c(C)cc1-c1nccc2cc(S(=O)(=O)Nc3ccon3)ccc12` [Example 248, 1-(4-chloro-2-methoxy-5-methylphenyl)-N-3-isoxazolyl-6-isoquinolinesulfonamide], 187 nM; that for `COc1cc(C(F)(F)F)c(Cl)cc1-c1nccc2cc(S(=O)(=O)Nc3ccon3)ccc12` [Example 249, 1-(5-chloro-2-methoxy-4-(trifluoromethyl)phenyl)-N-3-isoxazolyl-6-isoquinolinesulfonamide], 224 nM.
Turning to `COc1cc(C(F)F)c(C)cc1-c1nccc2cc(S(=O)(=O)Nc3ccon3)ccc12` [Example 250, 1-(4-(difluoromethyl)-2-methoxy-5-methylphenyl)-N-3-isoxazolyl-6-isoquinolinesulfonamide], the IC50 was found to be 728 nM.
Same read-out and setting: the result for `COc1cc(C(F)F)c(C2CC2)cc1-c1nccc2cc(S(=O)(=O)Nc3ccon3)ccc12` [Example 251, 1-(5-cyclopropyl-4-(difluoromethyl)-2-methoxyphenyl)-N-3-isoxazolyl-6-isoquinolinesulfonamide] reads 431 nM.
On the same count and under the same terms, to `COc1cc(-c2ccc(Cl)c(C)c2)c(C)cc1-c1ncnc2cc(S(=O)(=O)Nc3ccon3)ccc12` [Example 252, 4-(4′-chloro-5-methoxy-2,3′-dimethyl-4-biphenylyl)-N-3-isoxazolyl-7-quinazolinesulfonamide] belongs 32 nM; to `COc1cc(-c2ccc(Cl)c(C)c2)c(C)cc1-c1nccc2cc(S(=O)(=O)Nc3ccon3)ccc12` [Example 253, 1-(4′-chloro-5-methoxy-2,3′-dimethyl-4-biphenylyl)-N-3-isoxazolyl-6-isoquinolinesulfonamide], 118 nM; to `COc1cc(-c2cccc(F)c2)c(Cl)cc1-c1nccc2cc(S(=O)(=O)Nc3ccsn3)ccc12` [Example 254, 1-(2-chloro-3′-fluoro-5-methoxy-4-biphenylyl)-N-3-isothiazolyl-6-isoquinolinesulfonamide], 289 nM.
On the same count and under the same terms, the result for `COc1cc(-c2ccc(Cl)c(C)c2)c(Cl)cc1-c1nncc2cc(S(=O)(=O)Nc3ccsn3)ccc12` [Example 255, 1-(2,4′-dichloro-5-methoxy-3′-methyl-4-biphenylyl)-N-3-isothiazolyl-6-phthalazinesulfonamide] reads 320 nM; that for `COc1cc(-c2cc(F)cc(F)c2)c(Cl)cc1-c1nncc2cc(S(=O)(=O)Nc3ccsn3)ccc12` [Example 256, 1-(2-chloro-3′,5′-difluoro-5-methoxy-4-biphenylyl)-N-3-isothiazolyl-6-phthalazinesulfonamide], 85.2 nM; that for `COc1cc(-c2cccc(F)c2)c(Cl)cc1-c1nccc2cc(S(=O)(=O)Nc3ncco3)ccc12` [Example 257, 1-(2-chloro-3′-fluoro-5-methoxy-4-biphenylyl)-N-1,3-oxazol-2-yl-6-isoquinolinesulfonamide], 222 nM.

The assay is the same for the next values; noted with them: in-vitro Nav 1.7 PX (PatchXpress).
As to `COc1cc(-c2cccc(F)c2)c(Cl)cc1-c1cn(C)c2cc(S(=O)(=O)Nc3ccon3)ccc12` [Example 57, 3-(2-CHLORO-3′-FLUORO-5-METHOXY-[1,1′-BIPHENYL]-4-YL)-N-(ISOXAZOL-3-YL)-1-METHYL-1H-INDOLE-6-SULFONAMIDE], the IC50 worked out at 12900 nM. This counts as double-digit micromolar.
Same read-out and setting: the result for `COc1cc(-c2ccc(F)c(C3CC3)c2)c(C)cc1-c1ncnc2cc(S(=O)(=O)Nc3ccon3)ccc12` [Example 63, 4-(3′-CYCLOPROPYL-4′-FLUORO-5-METHOXY-2-METHYL-[1,1′-BIPHENYL]-4-YL)-N-(ISOXAZOL-3-YL)QUINAZOLINE-7-SULFONAMIDE] reads 34 nM.
Still for that read-out and setting: the result for `COc1nc(-c2cc(F)cc(F)c2)c(C#N)cc1-c1cccc2cc(S(=O)(=O)Nc3ccncn3)ccc12` [Example 64] reads 91 nM.
